This is an account of results in patent US6630447B2, “Peptide inhibitors of LFA-1/ICAM-1 interaction” (University of New Mexico, priority 2000, dated 2003).

Data set [1] deals with LFA-1/ICAM-1 mediated JY cell aggregation. The format is cell-based. The following applies: for Percent Inhibition: (1 − (Observed/Max) × 100); for Percent Inhibition / Percent JY Aggregation: (SD) in parentheses; for Inhibition of LFA-1/ICAM-1 mediated JY cell aggregation compared to SEQ ID NO: 1 (in words): substituted derivatives of the consensus peptide. The procedure: LFA-1 dependent cell aggregation has been previously studied using an aggregation assay it with a variety of leukocyte subclasses and cell lines (Larson et al., 1990; Wang et al., 1988; Larson et al., 1997). JY cells were obtained form American Type Tissue Culture Collection and were maintained in RPMI 1640 supplemented with 10% FBS at 37° C. in 5% CO2. Aggregation of cells was measured in a homotypic aggregation assay using ICAM-1 as a stimuli. JY cells were washed twice with serum free medium and resuspended at a concentration of 4×10^5 is cells/ml. Cells were preincubated with the desired concentration of peptide for 15 min at room temperature. In a final volume of 100 μl, 50 μl of cells and peptide were seeded in 96 well flat bottomed microtiter plates. Cells were allowed to aggregate at 37° C. in humidified air with 5% CO2. Cells were visualized and counted by inverted phase contrast microscopy at the time indicated. Within each well of aggregates as well as the total number of free (single) cells were counted. percent aggregation was determined by the following equation:
Percent aggregation=100×(1−number of free cells/total number of cells)
The consensus peptide (SEQ ID NO: 1) and the randomized sequence CLMIRMLRC (SEQ ID NO: 33), cyclizied in the disulfide-linked form, were synthesized by Biopeptide (San Diego, Calif.) and tested in a screening assay for the ability to inhibit aggregation of the cell line JY, which aggregates in an LFA-1/CAM-1 dependent manner. Aggregation measurements are relatively rapid and quantifiable. Furthermore, small volumes are used minimizing peptide consumption. Finally, cell aggregation in vitro depends on a multivalent LFA-1/ICAM-1 interaction. A peptide that is identified as being able to block cell aggregation in vitro is, therefore, likely to have affinity and off-rate characteristics that would make it an effective in vivo inhibitor, since cell—cell interaction in vivo also involves multivalent LFA-1/ICAM-1 interaction. Using this assay, the consensus peptide sequence has an IC50 of 500 μM (FIG. 1).
Peptides are initially tested for their ability to block LFA-1/ICAM dependent aggregation of the cell line JY (Wang et al., 1988; Larson et al., 1997). Peptides are preferably tested over a range of concentrations ([…], for example) and the concentration leading to half maximal inhibition of aggregation (IC50) is determined for all the peptide sequences.

Data set [2] relates to neutrophil binding to stimulated endothelial cells. Briefly: Firm attachment of neutrophils to stimulated endothelial cells in a parallel plate flow chamber. Format: cell-based, human. The following applies: for Percent Inhibition of firm attachment of neutrophils: (1 − (Observed/Maximum)) × 100; for Percent Inhibition of firm attachment of neutrophils / Firmly attached neutrophils, Cells/mm^2: (SD) in parentheses; for Neutrophil-binding to endothelium (in words): physiologic flow conditions; for Firmly attached neutrophils, Cells/mm^2: physiologic flow. An excerpt: An assay has been developed that provides an in vitro model of neutrophils or APL cells binding to activated endothelium. The binding of APL cells using a parallel plate flow chamber recapitulates events that occur in retinoic acid syndrome (Larson et al., 1997; Brown et al., 1999). A parallel plate flow chamber simulates the physiologic flow conditions in blood and adhesive interactions in post-capillary venules. Post-capillary venules are the physiologically relevant locations of leukemia cell-endothelial cell interaction and extravasation. […] Monolayers of endothelial cells are placed in the parallel plate flow chamber, and the leukemic cells are pumped through the chamber at physiologic flow rates. The interaction between the flowing leukemia cells and the endothelium are videotaped microscopically, and the number of rolling, firmly adhered and transmigrated leukemia cells is quantified by computer-assisted image analysis.
For investigating neutrophil binding, neutrophils are isolated from heparin anticoagulated venous blood of healthy adult donors by centrifugation on Ficoll-Hypaque density gradients as described by Simon et al. (1992). Isolated neutrophils are suspended at a concentration of 10^7/ml in Hanks' Balanced Salt Solution supplemented with 10 mmol/L HEPES, pH 7.4 and 0.2% human serum albumin (Armour Pharmaceutical, Kankakee, Ill.) and used within 2 hours of preparation. Neutrophils are kept on ice and resuspended in RPMi pre-warmed to 37° C. immediately before use.

The nature of data set [3]: Solubility of peptides in aqueous solution. Format: physicochemical. An excerpt:
An alternative derivative peptide strategy was undertaken in which the consensus sequence peptide was subjected to an alanine-screening procedure as described by Cunningham and Wells, 1989. Peptides cyclizied in the disulfide-linked form were synthesized by Biopeptide (San Diego, Calif.) wherein an alanine was substituted at each position in the hepatapeptide LLRMRSI of the consensus sequence SEQ ID NO: 1, and each peptide was examined in parallel for its ability to inhibit LFA-1/ICAM-1 mediated JY cell aggregation. Six of the seven peptides were soluble in aqueous solution. SEQ ID NO: 376, representing a substitution of the arginine in position 4 of SEQ ID NO: 1, was not soluble at […] and could not be tested. […] The randomized sequence CLRLSRIMC (SEQ ID NO: 56) was used as a control.

The mark [4] stands for this setting: Table 3, alanine-substituted derivations.
Setting [5] is: Table 4, homologous amino acid substitutions.

Like-named read-outs stand apart in the source and are kept apart here. Bridge positions count the residues as written; N and C are the ends. Peptide text beside a SMILES is read from it.

For `CC[C@H](C)[C@@H]1NC(=O)[C@H](CO)NC(=O)[C@H](CCCNC(=N)N)NC(=O)[C@H](CCSC)NC(=O)[C@H](CCCNC(=N)N)NC(=O)[C@H](CC(C)C)NC(=O)[C@H](CC(C)C)NC(=O)[C@@H](N)CSSC[C@@H](C(=O)O)NC1=O` [SEQ ID NO: 1, CLLRMRSIC] (H-CLLRMRSIC-OH; disulfide 1-9), the “Percent Inhibition” value in data set [1] (Table 3, JY cell aggregation) is reported as 46(11) Percent; in data set [1] (Table 4, JY cell aggregation) it was 45(9) Percent. Besides, the “Percent JY Aggregation” value is 41(8) Percent in data set [1] (setting [4]) and 30(5) Percent in data set [1] (setting [5]). Moreover, in data set [1] (titration of 100 μM to 1 mM), the “Aggregation of JY cells (FIG. 1, in words)” value is listed as “inhibited”. Also, the “Percent Inhibition of firm attachment of neutrophils” value in data set [2] is reported as 47(15) Percent. Besides, the “Neutrophil-binding to endothelium (in words)” value in data set [2] (parallel plate flow chamber) is listed as “block”. In addition, the “Firmly attached neutrophils, Cells/mm^2” value in data set [2] is reported as 439(120) Cells/mm^2.
As to `CC[C@H](C)[C@@H]1NC(=O)[C@H](CO)NC(=O)[C@H](CCCNC(=N)N)NC(=O)[C@H](CCSC)NC(=O)[C@H](C)NC(=O)[C@H](CC(C)C)NC(=O)[C@H](CC(C)C)NC(=O)[C@@H](N)CSSC[C@@H](C(=O)O)NC1=O` [SEQ ID NO: 36, CLLAMRSIC] (H-CLLAMRSIC-OH; disulfide 1-9), the “Inhibition of LFA-1/ICAM-1 mediated JY cell aggregation compared to SEQ ID NO: 1 (in words)” value in data set [1] is “Loss of inhibitory function”. Further, in data set [3] (at 1 nm), the “Solubility in aqueous solution” value is recorded as “Not Soluble”.
As for `CC[C@H](C)[C@@H]1NC(=O)[C@H](CCCNC(=N)N)NC(=O)[C@H](CO)NC(=O)[C@H](CC(C)C)NC(=O)[C@H](CCCNC(=N)N)NC(=O)[C@H](CC(C)C)NC(=O)[C@@H](N)CSSC[C@@H](C(=O)O)NC(=O)[C@H](CCSC)NC1=O` [SEQ ID NO: 56, CLRLSRIMC, reference compound] (H-CLRLSRIMC-OH; disulfide 1-9 (inferred)), the “Aqueous solubility relative to randomized sequence SEQ ID NO: 33” value in data set [3] was “greater aqueous solubility”.
As for “CALRMRSIC (OTHER INFORMATION: Description of Artificial Sequence:Synthetic) [SEQ ID NO: 34]”, in data set [1] (Table 3, JY cell aggregation), the “Percent Inhibition” value was 7(19) Percent. Further, in data set [1] (setting [4]), the “Percent JY Aggregation” value was 71(15) Percent. For the same molecule, the “Inhibition of LFA-1/ICAM-1 mediated JY cell aggregation compared to SEQ ID NO: 1 (in words)” value in data set [1] is recorded as “Loss of inhibitory function”.
As to “CILRMRSAC (OTHER INFORMATION: Description of Artificial Sequence:Synthetic) [SEQ ID NO: 43]”, the “Percent Inhibition” value in data set [1] (Table 4, JY cell aggregation) is given as 92(9) Percent. Also, the “Percent JY Aggregation” value in data set [1] (setting [5]) is reported as 4(5) Percent. The “Inhibition of LFA-1/ICAM-1 mediated JY cell aggregation compared to SEQ ID NO: 1 (in words)” value in data set [1] is given as “greater inhibition”.
For the molecule “CLARMRSIC (OTHER INFORMATION: Description of Artificial Sequence:Synthetic) [SEQ ID NO: 35]”, the “Percent Inhibition” value in data set [1] (Table 3, JY cell aggregation) is reported as 9(22) Percent. Further, in data set [1] (setting [4]), the “Percent JY Aggregation” value is reported as 69(17) Percent. The “Inhibition of LFA-1/ICAM-1 mediated JY cell aggregation compared to SEQ ID NO: 1 (in words)” value in data set [1] was “Loss of inhibitory function”.
Turning to “CLIRMRSAC (OTHER INFORMATION: Description of Artificial Sequence:Synthetic) [SEQ ID NO: 44]”, in data set [1] (Table 4, JY cell aggregation), the “Percent Inhibition” value is listed as 93(3) Percent. Further, in data set [1] (setting [5]), the “Percent JY Aggregation” value is given as 4(2) Percent. For the same molecule, in data set [1], the “Inhibition of LFA-1/ICAM-1 mediated JY cell aggregation compared to SEQ ID NO: 1 (in words)” value was “greater inhibition”.
The like results for “CLLKMRSAC (OTHER INFORMATION: Description of Artificial Sequence:Synthetic) [SEQ ID NO: 45]” were, in that order, 94(3) Percent, 3(2) Percent and “greater inhibition”.
In the case of “CLLRARSIC (OTHER INFORMATION: Description of Artificial Sequence:Synthetic) [SEQ ID NO: 37]”, the “Percent Inhibition” value in data set [1] (Table 3, JY cell aggregation) was 5(14) Percent. In data set [1] (setting [4]), the “Percent JY Aggregation” value is recorded as 72(11) Percent. Moreover, the “Inhibition of LFA-1/ICAM-1 mediated JY cell aggregation compared to SEQ ID NO: 1 (in words)” value in data set [1] is recorded as “Loss of inhibitory function”.
Turning to “CLLRMASIC (OTHER INFORMATION: Description of Artificial Sequence:Synthetic) [SEQ ID NO: 38]”, the “Percent Inhibition” value in data set [1] (Table 3, JY cell aggregation) was 11(12) Percent. The “Percent JY Aggregation” value in data set [1] (setting [4]) is 68(9) Percent. The “Inhibition of LFA-1/ICAM-1 mediated JY cell aggregation compared to SEQ ID NO: 1 (in words)” value in data set [1] is listed as “Loss of inhibitory function”.
For “CLLRMKSAC (OTHER INFORMATION: Description of Artificial Sequence:Synthetic) [SEQ ID NO: 46]”, the “Percent Inhibition” value in data set [1] (Table 4, JY cell aggregation) is on record as 90(4) Percent. Besides, the “Percent JY Aggregation” value in data set [1] (setting [5]) was 6(2) Percent. The “Inhibition of LFA-1/ICAM-1 mediated JY cell aggregation compared to SEQ ID NO: 1 (in words)” value in data set [1] is recorded as “greater inhibition”. In addition, in data set [2], the “Percent Inhibition of firm attachment of neutrophils” value is 66(0) Percent and the “Firmly attached neutrophils, Cells/mm^2” value is listed as 283(0) Cells/mm^2. Moreover, in data set [2] (parallel plate flow chamber), the “Inhibition of attachment of neutrophils to activated endothelium compared to SEQ ID NO: 1 (in words)” value is on record as “greater inhibition” and the “Neutrophil-binding to endothelium (in words)” value is given as “block”.
For the molecule “CLLRMRAIC (OTHER INFORMATION: Description of Artificial Sequence:Synthetic) [SEQ ID NO: 39]”, in data set [1] (Table 3, JY cell aggregation), the “Percent Inhibition” value is given as 27(21) Percent. For the same molecule, the “Percent JY Aggregation” value in data set [1] (setting [4]) is listed as 56(16) Percent. In addition, the “Inhibition of LFA-1/ICAM-1 mediated JY cell aggregation compared to SEQ ID NO: 1 (in words)” value in data set [1] is listed as “no significant effect”.
The like results for “CLLRMRSAC (OTHER INFORMATION: Description of Artificial Sequence:Synthetic) [SEQ ID NO: 40]” were, in that order, 61(17) Percent, 29(13) Percent and “more potent antagonist”.
On to “CLLRMRSLC (OTHER INFORMATION: Description of Artificial Sequence:Synthetic) [SEQ ID NO: 47]”, for which the “Percent Inhibition” value in data set [1] (Table 4, JY cell aggregation) is on record as −12(13) Percent. Besides, in data set [1] (setting [5]), the “Percent JY Aggregation” value is recorded as 61(7) Percent.
Regarding “CLLRMRSVC (OTHER INFORMATION: Description of Artificial Sequence:Synthetic) [SEQ ID NO: 48]”, the “Percent Inhibition” value in data set [1] (Table 4, JY cell aggregation) is 92(3) Percent. The “Percent JY Aggregation” value in data set [1] (setting [5]) was 4(1) Percent. The “Inhibition of LFA-1/ICAM-1 mediated JY cell aggregation compared to SEQ ID NO: 1 (in words)” value in data set [1] is listed as “greater inhibition”.
Take “CLMIRMLRC (OTHER INFORMATION: Description of Artificial Sequence:Synthetic) [SEQ ID NO: 33, reference compound]”: the “Aggregation of JY cells (FIG. 1, in words)” value in data set [1] (concentration of 1 mM) was “ineffective”.
Turning to “CLVRMRSAC (OTHER INFORMATION: Description of Artificial Sequence:Synthetic) [SEQ ID NO: 41]”, the “Percent Inhibition” value in data set [1] (Table 4, JY cell aggregation) is 0(1) Percent. Besides, the “Percent JY Aggregation” value in data set [1] (setting [5]) is recorded as 55(1) Percent.
With “CVLRMRSAC (OTHER INFORMATION: Description of Artificial Sequence:Synthetic) [SEQ ID NO: 42]”, in data set [1] (Table 4, JY cell aggregation), the “Percent Inhibition” value was 56(6) Percent. Further, the “Percent JY Aggregation” value in data set [1] (setting [5]) was 24(3) Percent.
